Read-outs that look alike come from different tables or passages of the source.
Experiments:
AsPC-1 (K-Ras G12D) [1] = assay: Potency assay: pERK; assay type: cell-based; conditions: Homo sapiens
NCI-H358 (K-Ras G12C) = assay: CellTiter-Glo cell viability assay; assay type: cell-based; conditions: Homo sapiens, NCI-H358, 120 h
Procedure, shortened: (§1)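 Luminescent viability readout on day 5, plates first brought to room temperature for ~30 min; compounds added straight to plated RAS-mutant cells. Values expressed as percent of mean DMSO signal, curves fitted with a four-parameter logistic model.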

AsPC-1 (K-Ras G12D) [2] = assay: CellTiter-Glo cell viability assay; assay type: cell-based; conditions: Homo sapiens, ASPC1, 120 h
Procedure, shortened: as §1

KRAS G12C = KRAS G12C (Homo sapiens, UniProt P01116+P62937, G12C); assay: Ras-Raf disruption / FRET / MOA assay (BRAF RBD); assay type: biochemical; conditions: KRAS G12C FRET data IC50, Ras-Raf disruption, with Cyclophilin A
Chain of KRAS G12C (P01116 1-169 isoform P01116-2 G12C limits assumed): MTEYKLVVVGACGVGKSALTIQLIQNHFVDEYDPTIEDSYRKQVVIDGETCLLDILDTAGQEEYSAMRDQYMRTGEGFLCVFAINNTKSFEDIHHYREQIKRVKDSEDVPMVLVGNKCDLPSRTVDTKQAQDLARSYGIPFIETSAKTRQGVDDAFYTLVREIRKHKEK
Chain of KRAS G12C (P62937 whole entry): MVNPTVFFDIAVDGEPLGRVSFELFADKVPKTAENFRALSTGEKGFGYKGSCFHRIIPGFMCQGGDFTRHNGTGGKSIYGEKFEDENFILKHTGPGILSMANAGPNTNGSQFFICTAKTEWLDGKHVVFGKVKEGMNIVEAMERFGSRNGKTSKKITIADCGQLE
Procedure, shortened: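 TR-FRET read-out after 1.5 h with anti-His Eu-W1024 (10 nM) and anti-GST APC (50 nM), following 3 h at 25 °C of compound (top 30 μM, 3-fold, 10 points) with 25 μM Cyclophilin A, 12.5 nM GMPPNP-loaded K-Ras G12C and 50 nM BRAF RBD; IC50 reported.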

KRAS G12S = KRAS G12S (Homo sapiens, UniProt P01116+P62937, G12S); assay: Ras-Raf disruption / FRET / MOA assay (BRAF RBD); assay type: biochemical; conditions: KRAS G12S FRET data IC50, Ras-Raf disruption, with Cyclophilin A
Chain of KRAS G12S (P01116 1-169 isoform P01116-2 G12S limits assumed): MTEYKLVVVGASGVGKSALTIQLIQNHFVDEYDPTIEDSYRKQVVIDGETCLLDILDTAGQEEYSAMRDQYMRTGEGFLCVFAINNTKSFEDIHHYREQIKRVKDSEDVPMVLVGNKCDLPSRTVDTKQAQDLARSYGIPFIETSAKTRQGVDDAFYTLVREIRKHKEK
Chain of KRAS G12S (P62937 whole entry): as the sequence (P62937 whole entry) above
Procedure, shortened: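 Compound-induced Ras–Cyclophilin A ternary complex disrupting BRAF RBD binding, read as IC50 from reduced TR-FRET ratio relative to DMSO. Final: Ras-GMPPNP 12.5 nM, BRAF RBD 50 nM, Cyclophilin A 25 μM, top compound 30 μM (3-fold, 10 points); 3 h at 25 °C, then 1.5 h with detection antibodies.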

[3] = read-out: H358 Cell Viability assay data IC50, K-Ras G12C, 5-day treatment
[4] = read-out: AsPC-1 Cell Viability assay data IC50, K-Ras G12D, 5-day treatment
[5] = ASPC1, AsPC-1 KRAS G12D, read-out: pERK EC50
[6] = K-Ras G12C, 5-day treatment, read-out: H358 Cell Viability assay data IC50
[7] = K-Ras G12D, 5-day treatment, read-out: AsPC-1 Cell Viability assay data IC50

SMILES	EC50 (AsPC-1 (K-Ras G12D) [1]; ASPC1, read-out: pERK EC50)	IC50 (NCI-H358 (K-Ras G12C); [3])	IC50 (AsPC-1 (K-Ras G12D) [2]; [4])	EC50 (AsPC-1 (K-Ras G12D) [1]; [5])	IC50 (NCI-H358 (K-Ras G12C); [6])	IC50 (AsPC-1 (K-Ras G12D) [2]; [7])	IC50 (KRAS G12C)	IC50 (KRAS G12S)
CCn1c(-c2cnccc2COC)c2c3cc(ccc31)-c1cc(O)cc(c1)C[C@H](NC(=O)[C@H](C(C)C)N(C)C(=O)CN(C)C(=O)[C@@H]1CN1Cc1ccccc1)C(=O)N1CCC[C@H](N1)C(=O)OCC(C)(C)C2 (stereo partly shown) [Example 10]	< 5000 nM	10 to 100 nM	1000 to 10000 nM					
CCn1c(-c2cccnc2[C@H](C)OC)c2c3cc(ccc31)-c1cc(O)cc(c1)C[C@H](NC(=O)[C@H](C(C)C)N(C)C(=O)[C@@H]1CO[C@H](C)CN1C(=O)[C@@H]1CN1)C(=O)N1CCC[C@H](N1)C(=O)OCC(C)(C)C2 [Example 249]				< 5000 nM	10 to 100 nM	10 to 100 nM		
CCn1c(-c2cccnc2[C@H](C)OC)c2c3cc(ccc31)-c1cc(O)cc(c1)C[C@H](NC(=O)[C@H](C(C)C)N(C)C(=O)CN(C)C(=O)[C@H]1N[C@@H]1C1CC1)C(=O)N1CCC[C@H](N1)C(=O)OCC(C)(C)C2 [Example 136]	< 5000 nM	< 10 nM					10 to 100 nM	10 to 100 nM
CCn1c(-c2cnccc2COC)c2c3cc(ccc31)-c1cc(O)cc(c1)C[C@H](NC(=O)[C@H](C(C)C)N(C)C(=O)CN(C)C(=O)[C@@H]1N[C@H]1c1ccccc1)C(=O)N1CCC[C@H](N1)C(=O)OCC(C)(C)C2 [Example 11]	< 5000 nM	100 to 1000 nM	1000 to 10000 nM					
CCn1c(-c2cnccc2COC)c2c3cc(ccc31)-c1cc(O)cc(c1)C[C@H](NC(=O)[C@H](C(C)C)N(C)C(=O)CN(C)C(=O)[C@H]1CN1Cc1ccccc1)C(=O)N1CCC[C@H](N1)C(=O)OCC(C)(C)C2 (stereo partly shown) [Example 9]	< 5000 nM	10 to 100 nM	1000 to 10000 nM					
CCn1c(-c2cccnc2[C@H](C)OC)c2c3cc(ccc31)-c1cc(O)cc(c1)C[C@H](NC(=O)[C@H](C(C)C)N(C)C(=O)[C@@H]1CO[C@H](C)CN1C(=O)[C@H]1CN1)C(=O)N1CCC[C@H](N1)C(=O)OCC(C)(C)C2 [Example 248]				< 5000 nM	10 to 100 nM	100 to 1000 nM		
CCn1c(-c2cccnc2[C@H](C)OC)c2c3cc(ccc31)-c1cc(O)cc(c1)C[C@H](NC(=O)[C@H](C(C)C)N(C)C(=O)[C@]1(C)CCCN1C(=O)[C@H]1CN1)C(=O)N1CCC[C@H](N1)C(=O)OCC(C)(C)C2 [Example 243]				< 5000 nM	100 to 1000 nM	100 to 1000 nM		
CCn1c(-c2cnccc2COC)c2c3cc(ccc31)-c1cc(O)cc(c1)C[C@H](NC(=O)[C@H](C(C)C)N(C)C(=O)CN(C)C(=O)[C@@H]1N[C@@H]1C1CC1)C(=O)N1CCC[C@H](N1)C(=O)OCC(C)(C)C2 [Example 103]	< 5000 nM	100 to 1000 nM	100 to 1000 nM					
